Assay results: the supplement of paper PMC10307832

Tests used:
Assay in all cases: relative viability (nuclei count vs DMSO), 5 days (fraction); higher = more cells survive
[1] = compound: C1=CC=C2C(=C1)N=C(S2)C(C#N)C3=NC(=NC=C3)NCCC4=CN=CC=C4 + CCNC(=O)c1noc(-c2cc(C(C)C)c(O)cc2O)c1-c1ccc(CN2CCOCC2)cc1 [Luminespib] (partner 0.01 µM)
In short: (§1)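 Relative viability is defined as nuclei in treated wells over nuclei in vehicle wells. Duplicate plates were run and medians reported. Lung cancer cell lines in 1536-well plates were dosed by pin tool one day after seeding, with one drug or with a fixed anchor-drug dose plus five library-drug doses (not always all listed) in √10 steps, and nuclei were counted after 5 days.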

[2] = compound: C1=CC=C2C(=C1)N=C(S2)C(C#N)C3=NC(=NC=C3)NCCC4=CN=CC=C4 + COc1cc2c(Oc3ccc(NC(=O)C4(C(=O)Nc5ccc(F)cc5)CC4)cc3F)ccnc2cc1OCCCN1CCOCC1 [Foretinib] (partner 0.25 µM)
In short: as §1

Vandetanib + Lapatinib = compound: COc1cc2/c(=N/c3ccc(Br)cc3F)nc[nH]c2cc1OCC1CCN(C)CC1 [Vandetanib] + CS(=O)(=O)CCNCc1ccc(-c2ccc3ncnc(Nc4ccc(OCc5cccc(F)c5)c(Cl)c4)c3c2)o1 [Lapatinib] (partner 2 µM)
In short: as §1

Vandetanib + Tozasertib = compound: COc1cc2/c(=N/c3ccc(Br)cc3F)nc[nH]c2cc1OCC1CCN(C)CC1 [Vandetanib] + Cc1cc(Nc2cc(N3CCN(C)CC3)nc(Sc3ccc(NC(=O)C4CC4)cc3)n2)n[nH]1 [Tozasertib] (partner 0.1 µM)
In short: as §1

| Cell Line | relative viability ([1]; first compound 0.005 µM) | relative viability ([1]; first compound 0.01581 µM) | relative viability ([1]; first compound 0.05 µM) | relative viability ([1]; first compound 0.1581 µM) | relative viability ([1]; first compound 0.5 µM) | relative viability ([2]; first compound 0.005 µM) | relative viability ([2]; first compound 0.01581 µM) | relative viability ([2]; first compound 0.05 µM) | relative viability ([2]; first compound 0.1581 µM) | relative viability ([2]; first compound 0.5 µM) | relative viability (Vandetanib + Lapatinib; first compound 0.02 µM) | relative viability (Vandetanib + Lapatinib; first compound 0.06325 µM) | relative viability (Vandetanib + Lapatinib; first compound 0.2 µM) | relative viability (Vandetanib + Lapatinib; first compound 0.6325 µM) | relative viability (Vandetanib + Lapatinib; first compound 2 µM) | relative viability (Vandetanib + Tozasertib; first compound 0.02 µM) | relative viability (Vandetanib + Tozasertib; first compound 0.06325 µM) | relative viability (Vandetanib + Tozasertib; first compound 0.2 µM) | relative viability (Vandetanib + Tozasertib; first compound 0.6325 µM) | relative viability (Vandetanib + Tozasertib; first compound 2 µM) |
| --- | --- | --- | --- | --- | --- | --- | --- | --- | --- | --- | --- | --- | --- | --- | --- | --- | --- | --- | --- | --- |
| NCI-H2087 | 0.163 | 0.159 | 0.222 | 0.2 | 0.15 | 1.08 | 1.14 | 1.1 | 1.12 | 0.969 | 0.894 | 0.916 | 0.988 | 1.06 | 1.08 | 0.252 | 0.266 | 0.0945 | 0.278 | 0.262 |
| PC-14 | 0.197 | – | 0.117 | 0.119 | 0.155 | 0.899 | 1.05 | 0.917 | 1.08 | 0.819 | 0.295 | 0.382 | 0.308 | 0.273 | 0.282 | 0.598 | 0.542 | 0.554 | 0.478 | 0.191 |
| H3255 | 0.779 | 0.884 | 0.916 | 1.11 | 0.944 | 0.988 | 0.879 | 0.848 | 1.09 | 0.963 | 0.26 | 0.231 | 0.244 | 0.213 | 0.202 | 0.469 | 0.727 | 0.579 | 0.554 | 0.345 |
| NCI-H460 | 0.0281 | 0.0289 | 0.031 | 0.0329 | 0.0322 | 0.969 | 1.15 | 1.06 | 1.08 | 1.08 | 0.878 | 0.962 | 0.969 | 0.951 | 0.874 | 0.399 | 0.432 | 0.371 | 0.391 | 0.457 |
| HOP-62 | 0.749 | 0.948 | 0.861 | 0.973 | 0.898 | 0.891 | 1.14 | 1.14 | 1.26 | 0.952 | 0.81 | 0.923 | 1.07 | 0.932 | 0.892 | 0.42 | 0.379 | 0.191 | 0.384 | 0.368 |
| NCI-H2085 | 0.439 | 0.368 | 0.4 | 0.388 | 0.413 | 0.891 | 0.811 | 0.888 | 1.03 | 0.979 | 0.749 | 0.706 | 0.837 | 0.868 | 0.748 | 0.793 | 0.755 | 0.472 | 0.774 | 0.725 |
| COR-L23 | 0.404 | 0.825 | 0.727 | 1.06 | 0.614 | 0.861 | 1.03 | 0.961 | 1.29 | 0.798 | 1.08 | 0.906 | 1.03 | 0.96 | 1.01 | 0.189 | 0.241 | 0.218 | 0.223 | 0.222 |
| HARA | 0.527 | 0.802 | 0.452 | 0.666 | 0.675 | 0.869 | 0.876 | 0.831 | 0.975 | 0.786 | 0.676 | 0.558 | 0.588 | 0.773 | 0.764 | 0.111 | 0.118 | 0.0738 | 0.466 | 0.0849 |
| 201T | 1.06 | 1.06 | 1.09 | 1.07 | 1.07 | 1.19 | – | 1.01 | 1.08 | 0.625 | 0.968 | 1.03 | 1.03 | 0.994 | 1.05 | 0.927 | 0.992 | 1.01 | 0.92 | 0.938 |
| EMC-BAC-2 | 0.766 | 1.32 | 1.11 | 1.28 | 1.03 | 0.946 | 1.01 | 0.994 | 1.03 | 1.03 | 0.906 | 0.87 | 0.435 | 0.866 | 0.95 | 0.317 | 0.307 | 0.151 | 0.319 | 0.286 |
| NCI-H1944 | 0.739 | 0.854 | 0.558 | 0.636 | 0.759 | 0.875 | 0.91 | 0.853 | 0.929 | 0.885 | 0.818 | 0.848 | 0.798 | 0.845 | 0.808 | 0.262 | 0.265 | 0.235 | 0.239 | 0.243 |
| NCI-H727 | – | 0.241 | 0.294 | 0.105 | 0.329 | 1.07 | 0.73 | 0.922 | 1.03 | 0.809 | 0.847 | 0.661 | 0.786 | 0.91 | 0.625 | 0.689 | 0.498 | 0.504 | 0.529 | 0.488 |
| NCI-H1993 | 0.846 | 0.852 | 0.821 | 0.834 | 0.738 | 0.803 | 0.768 | 0.723 | 0.783 | 0.665 | 0.728 | 0.801 | 0.663 | 0.923 | 0.786 | 0.639 | 0.601 | 0.481 | 0.561 | 0.521 |
| NCI-H3122 | 0.0736 | 0.0973 | 0.553 | 0.0763 | 0.0863 | 0.839 | 0.87 | 0.917 | 1.05 | 0.969 | 1.05 | 0.975 | 1.04 | 1.06 | 1 | 0.522 | 0.36 | 0.372 | 0.399 | 0.4 |
